The values that follow come from ChEMBL document CHEMBL4715851, “Research advances on selective phosphatidylinositol 3 kinase δ (PI3Kδ) inhibitors” (Bioorg Med Chem Lett, 2020).

Experiment [1] in a line: Inhibition of C-terminal PI3Kdelta/p85 (unknown origin) expressed in baculovirus expression system using Phosphatidylinositol as substrate in presence of ATP by TR-FRET assay. Also on record: species or system Homo sapiens. (Time-resolved FRET reads energy transfer from a long-lived donor to a nearby acceptor.)
For experiment [2], the target named is T1, Phosphatidylinositol 4,5-bisphosphate 3-kinase catalytic subunit delta isoform (Homo sapiens, UniProt O00329).
T1 sequence (O00329 whole entry): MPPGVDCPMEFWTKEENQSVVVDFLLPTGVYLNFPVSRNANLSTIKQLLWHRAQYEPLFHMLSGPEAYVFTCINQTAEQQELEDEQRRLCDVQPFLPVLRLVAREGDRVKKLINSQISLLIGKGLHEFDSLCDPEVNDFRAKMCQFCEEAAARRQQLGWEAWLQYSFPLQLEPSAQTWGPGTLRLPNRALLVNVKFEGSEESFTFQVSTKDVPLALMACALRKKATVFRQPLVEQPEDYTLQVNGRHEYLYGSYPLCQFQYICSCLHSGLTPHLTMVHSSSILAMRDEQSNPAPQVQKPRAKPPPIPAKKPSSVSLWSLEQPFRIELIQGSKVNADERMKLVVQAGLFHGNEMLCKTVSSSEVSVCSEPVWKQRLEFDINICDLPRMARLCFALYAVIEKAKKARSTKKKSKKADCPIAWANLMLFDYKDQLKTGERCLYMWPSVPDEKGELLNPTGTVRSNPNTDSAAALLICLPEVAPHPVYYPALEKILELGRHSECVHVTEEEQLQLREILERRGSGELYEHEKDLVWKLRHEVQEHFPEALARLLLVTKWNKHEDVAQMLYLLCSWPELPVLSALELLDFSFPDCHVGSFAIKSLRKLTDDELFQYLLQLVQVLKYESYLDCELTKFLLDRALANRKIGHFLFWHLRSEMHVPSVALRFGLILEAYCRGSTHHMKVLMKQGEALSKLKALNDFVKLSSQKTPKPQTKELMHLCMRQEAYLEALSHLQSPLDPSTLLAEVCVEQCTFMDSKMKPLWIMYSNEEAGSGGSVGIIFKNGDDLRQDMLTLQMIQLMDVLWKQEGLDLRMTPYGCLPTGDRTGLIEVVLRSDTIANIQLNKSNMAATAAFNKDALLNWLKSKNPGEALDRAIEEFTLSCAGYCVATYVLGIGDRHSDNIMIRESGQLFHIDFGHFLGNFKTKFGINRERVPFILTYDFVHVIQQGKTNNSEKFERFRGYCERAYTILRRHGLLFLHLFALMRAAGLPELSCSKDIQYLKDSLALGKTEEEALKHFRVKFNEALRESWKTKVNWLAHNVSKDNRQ
Put plainly: Inhibition of PI3K-delta (unknown origin).

Molecules are shown by their SMILES. pIC50: −log10 of the molar value.

In general, pIC50 refers to −log10 of the IC50, conventionally taken in molar units. Take `C[C@H](Nc1ncnc2scnc12)c1cc2cccc(-c3cnn(C)c3)c2c(=O)n1-c1ccccc1`: the negative logarithm of the IC50 (pIC50) in experiment [1] was above 7.00. For the compound `C=Cc1ccc2oc3ccc(=O)n(-c4cccc(NC(=O)c5ccc(OC)nc5)c4)c3c2c1`, in experiment [2], the pIC50 is 6.77.
